According to patent publication US20220081435A1, “ANDROGEN RECEPTOR PROTEIN DEGRADERS” (THE REGENTS OF THE UNIVERSITY OF MICHIGAN, priority 2019, published 2022):

How the values were obtained:
[1] = system: 22RV1 cells; assay: Cell growth inhibition in 22RV1 cells (WST-8 assay); type: cell-based
Experimental: 22RV1 cells were treated with a regular culture medium for 7 days. Cell viability was determined by a WST-8 assay.
Cell lines and Cell Culture: All the LNCaP, VCaP and 22RV1 cells used were purchased from American Type Culture Collection (ATCC). […] All of the cells were supplemented with 10% fetal bovine serum (Invitrogen) at 37° C. in a humidified 5% CO2 incubator.

[2] = target: T1, AR protein (Homo sapiens, UniProt P10275); assay: AR protein degradation in VCaP cells (Western blotting); type: cell-based
T1 construct: host or cells: VCaP
T1 sequence (P10275 1-920): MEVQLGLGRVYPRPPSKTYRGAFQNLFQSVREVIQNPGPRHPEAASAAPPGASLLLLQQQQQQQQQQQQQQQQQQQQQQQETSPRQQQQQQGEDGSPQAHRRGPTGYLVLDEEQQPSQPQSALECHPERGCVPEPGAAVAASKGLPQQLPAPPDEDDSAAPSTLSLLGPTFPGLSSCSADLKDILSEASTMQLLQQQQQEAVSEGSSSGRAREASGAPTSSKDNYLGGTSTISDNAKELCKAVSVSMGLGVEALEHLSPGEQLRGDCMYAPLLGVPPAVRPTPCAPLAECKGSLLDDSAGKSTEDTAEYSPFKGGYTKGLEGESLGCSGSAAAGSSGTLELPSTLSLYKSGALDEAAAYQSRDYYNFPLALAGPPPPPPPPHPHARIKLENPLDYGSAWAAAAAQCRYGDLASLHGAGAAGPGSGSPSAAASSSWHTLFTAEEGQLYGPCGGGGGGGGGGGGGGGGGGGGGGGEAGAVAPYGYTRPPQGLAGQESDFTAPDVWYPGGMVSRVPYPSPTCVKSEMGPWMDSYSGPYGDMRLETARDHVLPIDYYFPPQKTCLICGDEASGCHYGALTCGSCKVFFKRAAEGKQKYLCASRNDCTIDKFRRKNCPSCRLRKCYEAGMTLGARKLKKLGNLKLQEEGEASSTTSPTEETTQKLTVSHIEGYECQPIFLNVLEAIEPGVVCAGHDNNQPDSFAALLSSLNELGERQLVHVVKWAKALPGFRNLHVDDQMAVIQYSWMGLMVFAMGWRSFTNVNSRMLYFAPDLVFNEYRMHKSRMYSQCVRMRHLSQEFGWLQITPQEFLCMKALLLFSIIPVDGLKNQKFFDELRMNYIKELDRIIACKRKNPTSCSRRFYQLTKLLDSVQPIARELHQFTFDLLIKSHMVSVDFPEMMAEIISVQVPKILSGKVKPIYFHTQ
Experimental: (§1) Cell lines and Cell Culture: All the LNCaP, VCaP and 22RV1 cells used were purchased from American Type Culture Collection (ATCC). LNCaP and 22RV1 cells were grown in RPMI 1640 (Invitrogen), VCaP cells were grown in DMEM with Glutamax (Invitrogen). All of the cells were supplemented with 10% fetal bovine serum (Invitrogen) at 37° C. in a humidified 5% CO2 incubator.
(§2) Western Blotting. Treated cells were lysed by RIPA buffer supplemented with protease and phosphatase inhibitors. The cell lysates were separated by 4-12% SDS-PAGE gels and blotted into PVDF membranes. Software ImageJ was used to quantify the percentage of AR degradation. The net protein bands and loading controls are calculated by deducting the background from the inverted band value. The final relative quantification values are the ratio of net band to net loading control.

[3] = system: VCaP cells; assay: Cell growth inhibition in VCaP cells (WST-8 assay); type: cell-based
Experimental: VCaP were treated with different compounds in charcoal stripped medium in the presence of 0.1 nM of AR agonist R1881 for 7 days. Cell viability was determined by a WST-8 assay.
as §1

[4] = system: AR-regulated gene expression (PSA, TMPRSS2, FKBP5); assay: Suppression of AR-regulated gene expression in LNCaP cells (qRT-PCR); type: cell-based
Experimental: Quantitative Real-Time Polymerase Chain Reaction (qRT-PCR). Real-time PCR was performed using QuantStudio 7 Flex Real-Time PCR System as described previously.^43,44 RNA was purified using the Qiagen RNase-Free DNase set, then after quantification, the extracted RNA was converted to cDNA using High Capacity RNA-to-cDNA Kit from Applied Biosystems (Thermo Fisher Scientific). The levels of AR, TMPRSS2, FKBP5, PSA(KLK3) and GAPDH were quantified using TaqMan Fast Advanced Master Mix from Applied Biosystems. The level of gene expression was evaluated using comparative CT method, which compares the CT value to GAPDH (ACT) and then to vehicle control (ΔΔCT).

[5] = system: AR protein; assay: AR protein degradation in 22RV1 cells (Western blotting); type: cell-based
Experimental: as §1, §2

[6] = target: T2, AR protein in VCaP xenograft tumor tissue (Homo sapiens, UniProt P10275); assay: Pharmacodynamics in VCaP xenograft tumor tissue in mice (immunoblotting); type: in vivo; settings: SCID mice, single dose 50 mg/kg IP
T2 construct: resected control and treated VCaP xenograft tumor tissues were ground into powder in liquid nitrogen and lysed; from tissue; host or cells: VCaP xenograft tumor tissue from SCID mice
T2 sequence (P10275 1-920): T1 sequence (P10275 1-920)
Experimental: FIG. 9 is an image of an immunoblotting analysis of a pharmacodynamics (PD) study of AR degrader 34 (ARD-69) in VCaP tumor tissue in mice. SCID mice bearing xenograft VCaP tumors were treated with a single dose of 34 (ARD-69) (IP, 50 mg/kg). Tumor tissues were harvested at the indicated time points for immunoblotting.
Pharmacodynamics Studies in the VCaP Xenograft Models in Mice. All animal experiments were performed under the guidelines of the University of Michigan Committee for Use and Care of Animals and using an approved animal protocol (PI, Shaomeng Wang). Xenograft tumors were established by injecting 5×10^6 VCaP cells in 50% Matrigel subcutaneously on the dorsal side of severe combined immunodeficient (SCID) mice, obtained from Charles River, one tumor per mouse. When tumors reached ˜100 mm^3, mice were randomly assigned to treatment and vehicle control groups. Animals were monitored daily for any signs of toxicity and weighed 2-3 times per week during the treatment period and at least weekly after the treatment ended. For pharmacodynamics analysis, resected control and treated VCaP xenograft tumor tissues were ground into powder in liquid nitrogen and lysed in CST lysis buffer with halt proteinase inhibitors. Twenty micrograms of whole tumor clarified lysates were separated on 4-20% or 4-12% Novex gels. Western blots were performed as detailed in the previous section.

[7] = system: LNCaP cells; assay: Cell growth inhibition in LNCaP cells (WST-8 assay); type: cell-based
Experimental: LNCaP were treated with different compounds in charcoal stripped medium in the presence of 0.1 nM of AR agonist R1881 for 7 days. Cell viability was determined by a WST-8 assay.
as §1

[8] = charcoal stripped medium, 0.1 nM R1881, 7 days

## Cc1ncsc1-c1ccc([C@H](CC(=O)N2CCC(N3CCC(C#Cc4ccc(C(=O)NC5C(C)(C)C(Oc6ccc(C#N)c(Cl)c6)C5(C)C)cc4)CC3)CC2)NC(=O)[C@@H]2C[C@@H](O)CN2C(=O)[C@@H](NC(=O)C2(F)CC2)C(C)(C)C)cc1 (stereo partly drawn) [Compound 34, (2S,4R)—N—((S)-3-(4-((4-(((1r,3r)-3-(3-Chloro-4-cyanophenoxy)-2,2,4,4-tetramethyl-cyclobutyl)carbamoyl)phenyl)ethynyl)-[1,4′-bipiperidin]-1′-yl)-1-(4-(4-methylthiazol-5-yl)phenyl)-3-oxopropyl)-1-((S)-2-(1-fluorocyclopropane-1-carboxamido)-3,3-dimethylbutanoyl)-4-hydroxypyrrolidine-2-carboxamide]
[1]; 22RV1
  Potency relative to enzalutamide (4) and compound 6 in cell growth inhibition: > 100 times
[1]; 22RV1, regular culture medium, 7 days
  IC50: 183 nM
[2]; 10 nM, 24 h treatment
  AR degradation: > 95%
[2]; 100 nM
  Time to effective reduction of AR protein level: ≤ 2 h
[2]; 100 nM, 4 h
  AR depletion with a 4 h treatment: near-complete AR depletion
[2]; 24 h treatment, read-out: DC50 (drug concentration that results in 50% protein degradation)
  DC50: 0.76 nM
[2]; data not shown
  AR degradation after pretreatment with AR antagonist (6), VHL-d, MLN4924 or MG132: effectively blocked
[3]
  Potency relative to enzalutamide (4) and compound 6 in cell growth inhibition: > 100 times
[3]; [8]
  IC50: 0.34 nM
[4]
  Potency relative to AR antagonist 6 in suppressing AR-regulated gene transcription: > 100 times
[4]; 10 nM
  Reduction of mRNA level of both PSA and TMPRSS2 genes: > 50%
[4]; dose-dependent, data not shown
  Expression of PSA, TMPRSS2 and FKBP5 genes: effectively suppressed
[5]; 22RV1, 1 μM, 24 h treatment
  AR degradation: near complete degradation
[5]; 22RV1, 24 h treatment, read-out: DC50 (drug concentration that results in 50% protein degradation)
  DC50: 10.4 nM
[6]
  Persistence of AR protein reduction: at least 48 h
  Persistence of PSA protein reduction: 24 to 48 h
[6]; at the 3 h time-point
  Level of PSA protein in tumor tissue: effectively reduced
[6]; starting at 3 h
  Level of AR protein in tumor tissue: effectively reduced
[7]
  Potency relative to enzalutamide (4) and compound 6 in cell growth inhibition: > 100 times
[7]; [8]
  IC50: 0.25 nM
